Data from ChEMBL document CHEMBL1201862, “PubChem BioAssay data set” (2004).
Activity calls are given as the source filed them. Unless noted, the rule behind the calls is not given here.

What was measured:
cells = details: HEK293
[1] = Dd2 parasite growth inhibition in erythrocytes – SYBR Green, dry powder samples, set 4, dose response (AID 1159572); assay type: functional, cell-based
[2] = molecular target: Metabotropic glutamate receptor 7 (Homo sapiens, UniProt Q14831); assay: potentiation of glutamate EC20 at mGlu7 – cell-based, calcium mobilization, Galpha15, dose response (AID 743384); assay type: functional
[3] = rise of 4N DNA cells, HeLa – IC50, dose response (AID 1117351); assay type: functional, cell-based
[4] = rise of 2N DNA cells, HeLa – IC50, dose response (AID 1117349); assay type: functional, cell-based
[5] = IC50 of insulin release inhibition, rat insulinoma INS-1E line, 5 mM glucose, cell-based (AID 1117331); assay type: functional

Sequence of Metabotropic glutamate receptor 7 (Q14831 whole entry): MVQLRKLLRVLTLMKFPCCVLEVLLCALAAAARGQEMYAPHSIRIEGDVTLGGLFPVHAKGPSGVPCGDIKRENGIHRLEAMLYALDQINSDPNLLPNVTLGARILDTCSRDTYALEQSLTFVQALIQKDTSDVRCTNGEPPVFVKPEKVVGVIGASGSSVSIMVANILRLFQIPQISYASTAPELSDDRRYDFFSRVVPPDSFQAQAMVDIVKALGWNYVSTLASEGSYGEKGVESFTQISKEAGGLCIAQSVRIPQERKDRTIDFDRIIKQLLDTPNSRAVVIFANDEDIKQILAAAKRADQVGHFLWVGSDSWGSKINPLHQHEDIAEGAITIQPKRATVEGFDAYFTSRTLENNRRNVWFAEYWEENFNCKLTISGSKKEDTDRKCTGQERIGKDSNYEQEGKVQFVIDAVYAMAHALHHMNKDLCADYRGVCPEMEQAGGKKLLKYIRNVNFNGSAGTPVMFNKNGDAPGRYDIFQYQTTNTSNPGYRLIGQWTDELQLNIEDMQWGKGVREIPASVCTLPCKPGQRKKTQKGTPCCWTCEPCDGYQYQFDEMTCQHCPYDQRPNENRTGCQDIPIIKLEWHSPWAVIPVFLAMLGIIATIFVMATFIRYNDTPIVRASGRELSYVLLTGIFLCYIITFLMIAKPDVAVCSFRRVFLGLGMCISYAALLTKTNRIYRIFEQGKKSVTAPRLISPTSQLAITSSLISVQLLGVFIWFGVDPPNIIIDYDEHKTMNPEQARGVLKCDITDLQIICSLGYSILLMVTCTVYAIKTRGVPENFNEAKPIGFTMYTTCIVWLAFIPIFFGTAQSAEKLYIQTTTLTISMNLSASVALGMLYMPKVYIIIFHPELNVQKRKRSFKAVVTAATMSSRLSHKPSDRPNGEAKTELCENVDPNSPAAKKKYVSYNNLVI

For `COc1cc(C)ccc1OCCn1cnc2ccccc21`, the AC50 (cells) was > 52 µM (inactive).

With `COc1ccc2c3c([nH]c2c1)[C@H](CO)N(C(C)=O)CC31CCN(C(C)=O)CC1` the AC50 [1] was 16.5 µM (active).

In the case of `CC(=O)Nc1ccc(SCC(=O)c2cc(C)n(-c3ccc(S(N)(=O)=O)cc3)c2C)cc1`, the EC50 [2] is reported as 10 µM (active).

In the case of `CC(C)(C)C(=O)OCOP(=O)(COCCn1cnc2c(N)ncnc21)OCOC(=O)C(C)(C)C` [ADEFOVIR DIPIVOXIL], the IC50 [3] is reported as > 10 µM (inactive) and the IC50 [4] is reported as > 10 µM (inactive).

With `Nc1cc(N2CCCCC2)nc(N)[n+]1[O-]` [MINOXIDIL] the IC50 [5] was > 33.3 µM (inactive).
